Results from ChEMBL document CHEMBL4699523, “Predicting the Human Hepatic Clearance of Acidic and Zwitterionic Drugs” (J Med Chem, 2020).

What was measured:
in vitro [1] = conditions: cynomolgus monkey, plasma
Description: Fraction unbound in cynomolgus monkey plasma

in vitro [2] = conditions: human, cryopreserved hepatocytes
[3] = human, in vivo, iv
Description: Hepatic clearance in human administered through iv dosing

[4] = rat, in vivo, iv, 1 mg/kg
in vitro [5] = conditions: human, plasma
Description: Fraction unbound in human plasma

[6] = cynomolgus monkey, in vivo, iv, 1 mg/kg
in vitro [7] = conditions: rat, plasma
Description: Fraction unbound in rat plasma

in vitro [8] = conditions: dog, MDCK, pH 7.4
Description: Apparent permeability in dog MDCKII-LE cells at pH 7.4

physchem [9] = test: physchem
in vivo [10] = conditions: cynomolgus monkey, blood and plasma, iv
Description: Ratio of drug level in cynomolgus monkey blood to plasma administered through iv dosing by LC-MS/MS analysis

clinical = conditions: human, blood and plasma, iv
Description: Ratio of drug level in human blood to plasma administered through iv dosing by LC-MS/MS analysis

physchem [11] = conditions: buffer, pH 7.4
physchem [12] = test: physchem; remark: listed apart in the source
in vivo [13] = conditions: Wistar Hannover, rat, blood and plasma, iv
Description: Ratio of drug level in Wistar Hannover rat blood to plasma administered through iv dosing by LC-MS/MS analysis

| fraction unbound (in vitro [1]) | CLint scaled at 2 h, 1 µM (in vitro [2]) [mL/min/kg] | CLH [3] [mL/min/kg] | CLH [4] [mL/min/kg] | fraction unbound (in vitro [5]) | CLH [6] [mL/min/kg] | fraction unbound (in vitro [7]) | Papp (in vitro [8]) [×10⁻⁶ cm/s] | pKa at 0.3 h (physchem [9]) | blood plasma ratio (in vivo [10]) | blood plasma ratio (clinical) | logD (physchem [11]) | pKa at 0.3 h (physchem [12]) | blood plasma ratio (in vivo [13]) | Compound |
| --- | --- | --- | --- | --- | --- | --- | --- | --- | --- | --- | --- | --- | --- | --- |
| 0.0145 | 1.6 | 0.35 | 5.1 | 0.00415 | 8.4 | 0.00302 | 0.32 | – | – | – | – | – | – | CCCCC(=O)N(Cc1ccc(-c2ccccc2-c2nnn[nH]2)cc1)[C@H](C(=O)O)C(C)C |
| 0.00288 | 180 | 2 | – | 0.0024 | 19.5 | – | 12 | 5.3 | 0.561 | 0.654 | – | – | – | O=C(O)c1cccc(Cc2cc(Cl)ccc2OCc2ccc(Cl)cc2F)n1 |
| 0.0177 | 17 | 9.6 | – | 0.0288 | 23 | – | 1.2 | 4.3 | 0.588 | 0.726 | 0.9 | 2.7 | – | CCCCc1nc(C)c(CC(=S)N(C)C)c(=O)n1Cc1ccc(-c2ccccc2-c2nnn[nH]2)cc1 |
| 0.00116 | 61 | 0.91 | – | 0.00142 | 10.1 | – | 8.5 | 4.4 | 0.581 | 0.655 | 1.5 | 3.8 | – | CN(C)C(=O)CCS[C@H](SCCC(=O)O)c1cccc(/C=C/c2ccc3ccc(Cl)cc3n2)c1 |
| 0.0422 | 16 | 2.2 | 15.9 | 0.0285 | 33.1 | 0.0121 | 7.4 | 4.9 | 1.19 | 0.668 | 1.2 | – | 0.69 | COc1ccccc1Oc1c(NS(=O)(=O)c2ccc(C(C)(C)C)cc2)nc(-c2ncccn2)nc1OCCO [BOSENTAN] |
| 0.0153 | 43 | 2.7 | 8.7 | 0.0176 | 19.7 | 0.0179 | – | 4.7 | – | – | – | 5.6 | – | COCc1c(C(C)C)nc(C(C)C)c(/C=C/[C@@H](O)C[C@@H](O)CC(=O)O)c1-c1ccc(F)cc1 [CERIVASTATIN] |
| 0.085 | – | 10.8 | – | 0.072 | 26.3 | – | 2.5 | – | 0.73 | 0.73 | – | – | – | CC(C)(C)OC(=O)N[C@H]1CCCCC/C=C\[C@@H]2C[C@@]2(C(=O)NS(=O)(=O)C2CC2)NC(=O)[C@@H]2C[C@@H](OC(=O)N3Cc4cccc(F)c4C3)CN2C1=O [DANOPREVIR] |
| 0.00771 | 26 | 3.3 | – | 0.00969 | 1.4 | – | 4.6 | 4.2 | 0.596 | 0.563 | 1.5 | – | – | CCCCCN(CCCOC)C(=O)[C@@H](CCC(=O)O)NC(=O)c1ccc(Cl)c(Cl)c1 [DEXLOXIGLUMIDE] |
| 0.00917 | 23 | 0.33 | – | 0.0138 | 1.5 | – | 20 | 4.6 | 0.55 | 0.55 | 3.4 | – | – | CC(C)(C)NC(=O)[C@H]1CC[C@H]2[C@@H]3CC=C4C=C(C(=O)O)CC[C@]4(C)[C@H]3CC[C@]12C [EPRISTERIDE] |
| 0.0015 | – | 0.96 | – | 0.0035 | 3.5 | – | 5.7 | – | 0.62 | 0.62 | – | – | – | COc1ccc2c(c1)C(=O)N(CCc1ccc(S(=O)(=O)NC(=O)NC3CCCCC3)cc1)C(=O)C2(C)C [GLIQUIDONE] |
| 0.00179 | 69 | 1.2 | 1.2 | 0.00217 | 5.8 | 0.0013 | 14 | – | – | – | – | – | – | COc1ccc(Cl)cc1C(=O)NCCc1ccc(S(=O)(=O)NC(=O)NC2CCCCC2)cc1 [GLYBURIDE] |
| – | – | – | – | – | – | – | 33 | – | – | – | 1.1 | – | – | CC(C)Cc1ccc(C(C)C(=O)O)cc1 (stereo unspecified) [IBUPROFEN] |
| 0.0126 | – | 2.1 | – | 0.0155 | 12.1 | – | 8.6 | 3.5 | 0.55 | 0.603 | 1.3 | 4.6 | – | CCCCC1=NC2(CCCC2)C(=O)N1Cc1ccc(-c2ccccc2-c2nnn[nH]2)cc1 [IRBESARTAN] |
| 0.0148 | 3.1 | 0.19 | 1.3 | 0.0264 | 1.2 | 0.0216 | 15 | – | 0.687 | 0.792 | -0.6 | – | 0.55 | O=C(c1ccccc1)c1ccc2n1CCC2C(=O)O (stereo unspecified) [KETOROLAC] |
| 0.004 | – | 0.57 | – | 0.004 | 1.3 | – | 6 | – | – | – | – | 2.3 | – | CC(C)(O)c1ccccc1CC[C@@H](SCC1(CC(=O)O)CC1)c1cccc(/C=C/c2ccc3ccc(Cl)cc3n2)c1 [MONTELUKAST] |
| – | – | – | – | – | – | – | – | – | – | – | 0.7 | – | – | O=C(O)c1ccc(NC(=O)[C@H](CC2CCCC2)n2cnc(C(F)(F)F)c2)nc1 [PF-04991532] |
| 0.00164 | 40 | 0.59 | 6 | – | 1.8 | 0.0133 | – | 6 | – | – | 2.3 | 2.9 | – | Nc1[nH]ncc1-c1cc(Cl)ccc1Oc1cc(F)c(S(=O)(=O)Nc2cscn2)cc1Cl [PF-05089771] |
| – | – | 3.2 | 271 | – | – | – | – | – | – | – | 1.1 | – | – | CCN1CC(n2nccc2-c2cc(Cl)ccc2Oc2ccc(S(=O)(=O)Nc3cscn3)cc2C#N)C1 [PF-05150122] |
| – | – | 1.3 | – | – | – | – | 0.8 | 4.1 | – | – | 0.8 | – | – | O=S(=O)(Nc1nncs1)c1cc(Cl)c(Oc2ccc(C(F)(F)F)cc2-c2ccnnc2)cc1F [PF-05186462] |
| 0.002 | 37 | 5.7 | 3.1 | 0.002 | 30.1 | 0.001 | 3.9 | 3.6 | 0.56 | 0.56 | 2 | – | 0.55 | Cc1nn(-c2cnc(OCC(C)C)c(Cl)c2)c2ccc(C(=O)NS(C)(=O)=O)cc12 [PF-05241328] |
| 0.649 | 0.77 | 7.3 | 19.3 | 0.634 | 34.6 | 0.537 | 0.46 | 4.3 | 0.651 | 0.55 | -0.4 | – | 0.595 | CC[C@H](C)C(=O)O[C@H]1C[C@H](O)C=C2C=C[C@H](C)[C@H](CC[C@@H](O)C[C@@H](O)CC(=O)O)[C@H]21 [PRAVASTATIN] |
| 0.0124 | 98 | 7.4 | – | 0.0124 | 10.7 | – | 19 | 4.4 | 0.679 | 0.851 | 2.3 | 6 | – | CCOc1cc(CC(=O)N[C@@H](CC(C)C)c2ccccc2N2CCCCC2)ccc1C(=O)O [REPAGLINIDE] |
| 0.155 | 0.86 | 6.8 | 28.4 | 0.158 | 27.9 | 0.0421 | 0.89 | 4.3 | 0.735 | 0.569 | 0.1 | – | 0.588 | CC(C)c1nc(N(C)S(C)(=O)=O)nc(-c2ccc(F)cc2)c1/C=C/[C@@H](O)C[C@@H](O)CC(=O)O [ROSUVASTATIN] |
| 0.00151 | 4.7 | 0.03 | – | 0.00273 | 0.135 | – | – | 3.4 | 0.687 | 0.699 | -0.1 | – | – | CCO[C@@H](Cc1ccc(OCCc2ccc(OS(C)(=O)=O)cc2)cc1)C(=O)O [TESAGLITAZAR] |

| Compound | fraction unbound (in vitro [1]) | CLint scaled at 2 h, 1 µM (in vitro [2]) [mL/min/kg] | CLH [3] [mL/min/kg] | CLH [4] [mL/min/kg] | fraction unbound (in vitro [5]) | CLH [6] [mL/min/kg] | fraction unbound (in vitro [7]) | Papp (in vitro [8]) [×10⁻⁶ cm/s] | pKa at 0.3 h (physchem [9]) | blood plasma ratio (in vivo [10]) | blood plasma ratio (clinical) | logD (physchem [11]) | pKa at 0.3 h (physchem [12]) | blood plasma ratio (in vivo [13]) |
| --- | --- | --- | --- | --- | --- | --- | --- | --- | --- | --- | --- | --- | --- | --- |
| O=C(O)Cc1ccccc1Nc1c(Cl)cccc1Cl [DICLOFENAC] | 0.0047 | 176 | 4.1 | 17.5 | 0.00376 | 10.8 | 0.00598 | – | – | – | – | – | – | – |
| CC(C)n1c(/C=C/C(O)CC(O)CC(=O)O)c(-c2ccc(F)cc2)c2ccccc21 (stereo unspecified) [FLUVASTATIN] | – | – | – | – | 0.00922 | – | 0.009 | 11 | 4.4 | – | – | 1.4 | – | – |
